From patent publication US7052676B2, “Methods for inhibition of HIV replication using a small molecule inhibitor” (priority 2000, dated 2006)
“Also recorded” adds a separate entry of the source. Read-outs that look alike come from different tables or passages of the source.

What was measured:
HIV-1BaL [1] = assay: HIV-1BaL replication in monocyte-derived macrophages (MDM), RT activity in supernatants; format: cell-based; settings: for increase of HIV-1BaL replication in MDM by exogenous chemokine, mean over donors: IL-8: 17 donors, GRO-α: 5 donors
Protocol: (§1) HIV-1 Infection of MDM and PBL: For each experiment, multiple wells of MDM or PBL were infected with equal RT counts of HIV-1 (30–300×10^6 CPM of RT used per 10^5 cells). This amount of CPM of RT activity per cell corresponds to a multiplicity of infection (MOI) of between 0.01 and 0.1 as determined by titration on HOS-CD4-CCR5 and CEM-SS cell lines and quantitation of proviral DNA in PBMC 24 h after infection. MDM were cultured for 3 d prior to infection, washed after an overnight incubation with the virus, and cultured in DME+10% FBS. PHA-activated PBL were washed and incubated in RPMI+10% FBS+IL-2 (40 U/ml) overnight. CD8+cells were depleted with magnetic Dynabeads® M-450 CD8 according to the manufacturer's instructions (Dynal, Lake Success, N.Y.). CD8-depleted PBL were then incubated with HIV-1 for 4 h, washed and incubated in media +IL-2. A portion of the media (25%) was removed from the MDM and PBL supernatants and replaced twice weekly.

HIV-1BRU [2] = assay: HIV-1BRU replication in PHA-activated PBL / T lymphocytes, RT activity in supernatants; format: cell-based; settings: for increase of HIV-1BRU replication in PBL by exogenous chemokine, mean over donors: IL-8: 5 donors, CD8-depleted PBL, GRO-α: n=7, p=0.027
Protocol: as §1

MDM = assay: MTT assay of cellular viability, proliferation and activation in infected MDM; format: cell-based, human
Protocol: FIG. 3. […] MDM were treated as in FIGS. 1 and 2, and RT activity was measured every three to four days. MDM were also analyzed on day 13 by MTT assay (a measure of cellular viability, proliferation, and activation). Viability and activation was changed by less than 20% at all of the doses evaluated. For each treatment, viral replication was normalized against viability (RT activity/MTT assay) and then expressed relative to the control (no treatment). Data shown are the mean of three experiments;
In a preferred embodiment, the inhibitor is SB225002, a small molecular weight inhibitor that is an antagonist of IL-8 binding to CXCR2. In an alternate preferred embodiment, the inhibitor is antileukinate, a synthetic peptide inhibitor that interferes with both IL-8 and GRO-α binding to receptors. […] Infection of PBL with HIV-1BRU was inhibited by both the small molecule inhibitor, SB225002 (FIG. 29A), and the peptide, antileukinate (FIG. 29B). […] Cellular viability, proliferation, and activation were also analyzed in the infected cells by performing an MTT assay. […] Similarly, doses of antileukinate up to 10^−4 M in PBL and 10^−6 M in MDM reduced cellular viability by not more than 20%, and doses as low as 10^−8 M were effective at inhibiting HIV-1 replication. […]

PBL = format: cell-based, human
Source text: In a preferred embodiment, the inhibitor is SB225002, a small molecular weight inhibitor that is an antagonist of IL-8 binding to CXCR2. In an alternate preferred embodiment, the inhibitor is antileukinate, a synthetic peptide inhibitor that interferes with both IL-8 and GRO-α binding to receptors. […] Infection of PBL with HIV-1BRU was inhibited by both the small molecule inhibitor, SB225002 (FIG. 29A), and the peptide, antileukinate (FIG. 29B). […] Cellular viability, proliferation, and activation were also analyzed in the infected cells by performing an MTT assay. […] Similarly, doses of antileukinate up to 10^−4 M in PBL and 10^−6 M in MDM reduced cellular viability by not more than 20%, and doses as low as 10^−8 M were effective at inhibiting HIV-1 replication. […] The mean decreases in HIV-1BaL replication in MDM were 4.0±1.3 for 1000 nM SB225002 (p=0.019) and 2.6±0.6 for 10^−6 M antileukinate (p=0.002) relative to controls.

GRO-α production by MDM = format: cell-based, human
HIV-1BaL [3] = assay: HIV-1BaL replication in activated (CD8-depleted) PBL, RT activity; format: cell-based; settings: IL-8: 11 donors; GRO-α: n=6
Protocol: as §1

HIV-1BRU [4] = assay: HIV-1BRU (X4) infection of MDM, RT activity; format: cell-based; settings: MDM from multiple donors
Protocol: as §1

HIV-1 = settings: R5 and X4 isolates of HIV-1 and HIV-2
Protocol: Reverse Transcriptase (RT) Assay: HIV replication was determined by quantification of the RT activity present in the supernatants using a poly(A)-oligo(dT) template primer as previously described. […] RT activity was assayed using ^32P-labeled deoxythymidine triphosphate incorporated in DNA bound to DE81 paper (Whatman) and quantified using either the Series 400 PhosphorImager and ImageQuant® software (Molecular Dynamics, Sunnyvale, Calif.) or a Betascope radioisotope imaging system. RT activity is reported as phosphoimager counts except when labeled “counts” to signify beta counts.

CD14+ monocytes = assay: Intracellular IL-8 staining of PBMC (flow cytometry); format: cell-based, human; settings: staining after 6 hours; control monocytes 10%
Protocol: Intracellular Cytokine Staining: PBMC were collected as described above and cultured in RPMI+10% FBS. The next day, PBMC were treated for 6 h with monensin (GolgiStop™, PharMingen) and incubated with virus or TNF-α. PBMC were then collected and stained for the presence of intracellular IL-8 and various cell surface markers according to the manufacturer's instructions (PharMingen). Adherent cells were collected by incubation in PBS+10 mM EDTA for 30 min at 4° C. PBMC (both adherent and non-adherent cells) were incubated in staining buffer (DPBS+1% FBS+0.09% sodium azide) with mouse IgG for 20 min at 4° C. to block non-specific binding of IgG to target cells. PBMC were then washed with staining buffer and stained for cell surface antigens for 30 min at 4° C. using R-phycoerythrin (PE)-conjugated mouse anti-human CD4 (PE-CD4) or CD14 (PE-CD14) monoclonal antibodies or PE-mouse IgG1, κ isotype control immunoglobulin (PharMingen). After two washes with staining buffer, PBMC were fixed and permeabilized with Cytofix/Cytoperm (PharMingen). PBMC were washed twice in Perm/Wash solution and then stained with either fluorescein isothiocyanate (FITC)-conjugated mouse anti-human IL-8 monoclonal antibody or FITC-mouse IgG2a, κ immunoglobulin isotype standard (PharMingen). Analysis of cell staining was performed using an EPICS Elite cell sorter (Beckman-Coulter, Fullerton, Calif.). […]

IL-8 promoter = IL-8 promoter CAT reporter in transfected U937 cells; format: cell-based, human; settings: Tat co-transfection alone, or TNF-α 1 ng/ml alone
Protocol: Transfection of the U937 Promonocyte Cell Line: U937 cells were transfected by the DEAE-dextran method with 1 μg of HIV-1 Tat (pCG-Tat1) or control vector (pCG) and 10 μg of a plasmid containing the chloramphenicol acetyl transferase (CAT) reporter gene downstream of either sequence which lacks eukaryotic promoter and enhancer sequences (pCAT-Basic, Promega, Madison, Wis.), nucleotides −254 to +19 of the IL-8 promoter (pCAT-IL-8), or the HIV-1-LTR. The cells were either left untreated or treated with TNF-α (1 ng/ml) at 24 hours after transfection and harvested 48 hours after transfection. CAT activity was quantified and normalized for the amount of protein. Values near 6000 represent complete acetylation of chloramphenicol (100%).

monocytes = assay: Intracellular GRO staining of PBMC (flow cytometry); format: cell-based, human; settings: staining after 6 hours
Protocol: Intracellular cytokine staining: PBMC were collected as described above and cultured in RPMI+10% FBS. The next day, PBMC were treated for 6 h with monensin (GolgiStop™, PharMingen) and incubated with virus, viral proteins, or TNF-α as indicated in the figure legend. PBMC were then collected and stained for the presence of intracellular GRO according to the manufacturer's instructions (PharMingen). Adherent cells were collected by incubation in PBS+10 mM EDTA for 30 min at 4° C. PBMC (both adherent and non-adherent cells) were then incubated in staining buffer (DPBS+1% FBS+0.09% sodium azide) with mouse IgG for 20 min at 4° C. to block non-specific binding of IgG to target cells. After two washes with staining buffer, PBMC were fixed and permeabilized with Cytofix/Cytoperm (PharMingen). PBMC were washed twice in Perm/Wash solution and then stained with either R-phycoerythrin (PE)-conjugated mouse anti-human GRO monoclonal antibody (GRO-PE) or PE-mouse IgG1, κ isotype control immunoglobulin (PharMingen). Analysis of cell staining was performed using an EPICS Elite cell sorter (Beckman-Coulter, Fullerton, Calif.). The monocyte and lymphocyte subpopulations were gated according to the pattern of forward scatter and side scatter.

IL-8 production by MDM = IL-8 production by MDM (ELISA of supernatants); settings: added prior to exposure to HIV-1

For O=C(Nc1ccc([N+](=O)[O-])cc1O)Nc1ccccc1Br [SB225002, N-(2-hydroxy-4-nitrophenyl)-N′-(2-bromophenyl)urea, reference compound], the “mean decrease in HIV-1BaL replication in MDM relative to controls” value (HIV-1BaL [1]; 1000 nM, p=0.019) was 4.0±1.3, the “HIV replication in MDM, effect of inhibitor” value (HIV-1BaL [1]; RT activity normalized against MTT, relative to no treatment, mean of three experiments) was “significantly decrease HIV replication” and the “HIV-1BRU infection/replication in PBL, effect of inhibitor” value (HIV-1BRU [2]; treated every three days from one day before infection, RT activity days 3, 6, 9) was “decreases HIV-1 replication; also recorded: inhibited”. The “cellular viability (MTT), effect of the doses used” value (MDM) was “did not negatively affect cellular viability” and the “cellular viability (MTT), effect of the doses used” value (PBL) was “did not negatively affect cellular viability”.

With O=c1c(-c2ccc(O)cc2)coc2cc(O)cc(O)c12 [genistein] the “HIV-1BRU-induced GRO-α production by MDM, sensitivity to inhibitor” value (GRO-α production by MDM) was “sensitive”.

In the case of CO[C@H]1[C@@H](OC)C[C@H](C)[C@@H](OC)C2=CC(=O)C=C(NC(=O)/C(C)=C/C=C\[C@H](OC)[C@@H](OC(N)=O)/C(C)=C/[C@@H]1C)C2=O [herbimycin A], the “HIV-1BRU-induced GRO-α production by MDM, sensitivity to inhibitor” value (GRO-α production by MDM) is reported as “sensitive”.

With “GRO-α: recombinant C-X-C chemokine growth-regulated oncogene-alpha, ligand of CXCR2” the “HIV-1BaL replication in MDM, effect of exogenous chemokine” value (“HIV-1BaL replication in MDM, effect” for short) (HIV-1BaL [1]) was “augmented”, the “increase of HIV-1BaL replication in MDM by exogenous chemokine, mean over donors” value (HIV-1BaL [1]) was 14 fold and the “increase of HIV-1BRU replication in PBL by exogenous chemokine, mean over donors” value (HIV-1BRU [2]) was 2.4 fold. The “increase of HIV-1BaL replication in PBL by exogenous chemokine, mean over donors” value (HIV-1BaL [3]) was 5 fold, the “susceptibility of MDM to productive infection with X4 HIV (HIV-1BRU) with exogenous chemokine” value (HIV-1BRU [4]) was “does not confer susceptibility to productive infection with X4 HIV on MDM” and the “replication of other isolates tested, effect of exogenous chemokine” value (HIV-1) was “stimulated the replication of all isolates tested”.

For “IL-8: recombinant human IL-8, C-X-C chemokine”, the “HIV-1BaL replication in MDM, effect” value (HIV-1BaL [1]) was “augmented”, the “increase of HIV-1BaL replication in MDM by exogenous chemokine, mean over donors” value (HIV-1BaL [1]) was 6.2 fold and the “increase of HIV-1BRU replication in PBL by exogenous chemokine, mean over donors” value (HIV-1BRU [2]) was 1.7 fold. The “doses that stimulated viral replication” value (HIV-1BRU [2]; PHA-activated, CD8-depleted PBL (FIG. 8C)) was “exceeding 5 ng/ml”, the “increase of HIV-1BaL replication in PBL by exogenous chemokine, mean over donors” value (HIV-1BaL [3]) was 4.8 fold and the “susceptibility of MDM to productive infection with X4 HIV (HIV-1BRU) with exogenous chemokine” value (HIV-1BRU [4]) was “does not confer susceptibility to productive infection with X4 HIV on MDM”. The “replication of other isolates tested, effect of exogenous chemokine” value (HIV-1) was “stimulated the replication of all other isolates tested”.

IP-10: CXCR3 ligand, C-X-C chemokine was tested, and the “HIV-1BaL replication in MDM, effect” value (HIV-1BaL [1]) was “stimulation” and the “HIV-1BRU replication in peripheral blood lymphocytes, effect of exogenous chemokine” value (from here on “HIV-1BRU replication … of exogenous chemokine”) (HIV-1BRU [2]) was “stimulation”.

In the case of SDF-1α, the “GRO-α production by MDM, effect of treatment with the agent alone” value (GRO-α production by MDM) is reported as “not produced”.

For TNF-α, the “CD14+ monocytes in which IL-8 was present” value (CD14+ monocytes) was over 90%, the “IL-8 promoter activity, effect of single stimulus” value (IL-8 promoter) was “activated” and the “monocytes in which GRO was present” value (monocytes) was “large percentage of monocytes”.

polymixin B was tested, and the “HIV-induced IL-8 production by MDM, effect of antibody or agent” value (IL-8 production by MDM) was “did not prevent the HIV-induced increase in IL-8 production” and the “HIV-1BRU-induced GRO-α production by MDM, sensitivity to inhibitor” value (GRO-α production by MDM; supernatants 20 hours after exposure to virus) was “did not prevent the HIV-1BRU-induced increases in GRO-α”.

B1: I-TAC: CXCR3 ligand, C-X-C chemokine (protein, UniProt O14625 22-94, looked up)
C-X-C motif chemokine 11: FPMFKRGRCLCIGPGVKAVKVADIEKASIMYPSNNCDKIEVIITLKENKGQRCLNPKSKQARLIIKKVERKNF
For B1, the “HIV-1BRU replication … of exogenous chemokine” value (HIV-1BRU [2]) was “stimulation”.

B2: MIG: CXCR3 ligand, C-X-C chemokine (protein, UniProt Q07325 23-125, looked up)
C-X-C motif chemokine 9: TPVVRKGRCSCISTNQGTIHLQSLKDLKQFAPSPSCEKIEIIATLKNGVQTCLNPDSADVKELIKKWEKQVSQKKKQKNGKKHQKKKVLKVRKSQRSRQKKTT
In the case of B2, the “HIV-1BRU replication … of exogenous chemokine” value (HIV-1BRU [2]) is reported as “stimulation”.

B3: RANTES: C-C chemokine which binds to CCR5 and CCR1 (protein, UniProt P13501 24-91, looked up)
C-C motif chemokine 5: SPYSSDTTPCCFAYIARPLPRAHIKEYFYTSGKCSNPAVVFVTRKNRQVCANPEKKWVREYINSLEMS
B3 was tested, and the “GRO-α production by MDM, effect of treatment with the agent alone” value (GRO-α production by MDM) was “nor RANTES, which binds to CCR5 and CCR1, was able to stimulate GRO-α production”.
